Source: US20260049078A1, “DIFLUORO- AND TRIFLUORO-ACETYL HYDRAZIDES AS SELECTIVE HDAC6 INHIBITORS” (ITALFARMACO S.P.A., priority 2022, published 2026)

How the values were obtained:
recombinant human HDAC6 = recombinant human HDAC6 (Homo sapiens (Human), UniProt Q9UBN7); assay: Enzyme inhibitory activity assay on HDAC6; format: biochemical; details: 30 minutes preincubation at 25° C.
Description: (§1) For each test compound, 100× concentrated DMSO solutions at 8 doses were prepared and then diluted in assay buffer (25 mM Tris-HCl, pH 8, 130 mM NaCl, 0.05% Tween-20, 10% Glycerol) to obtain 5× concentrated solutions in relation to the final concentrations (typical final concentration range—6.4-200000 nM or 0.18-50000 nM, final DMSO content—1%). Then 10 μL solution of each test compound concentration were placed on a 96-well plate in triplicate and 15 μL of 3.33× concentrated enzyme solution in the assay buffer containing 3.33× concentrated BSA (final BSA concentration 1 mg/mL) and, in case of HDAC6, 3.33× concentrated TCEP (final TCEP concentration—200 μM) were added to each well. After a period of preincubation at 25° C. (30 minutes for HDAC6 and 120 minutes for HDAC1), 25 μL of solution containing the substrate were added. As substrate, FLUOR DE LYS® deacetylase substrate (Enzo Life Sciences, cat: BML-KI104, FdL), FLUOR DE LYS®-Green substrate (Enzo Life Sciences, cat: BML-KI572, FdL_G) or Boc-Lys(Tfa)-AMC (Bachem, cat: 4060676.005, Tfal)—2× concentrated solution in assay buffer were used. Following a reaction period (30 minutes at 25° C.), 50 μL of the development solution consisting of concentrate FLUOR DE LYS® developer I (Enzo Life Sciences, ca: BML-KI105), diluted 200 times in buffer (50 mM Tris-HCl, pH 8, 137 mM NaCl, 2.7 mM KCl, 1 mM MgCl2) plus 2 μM TSA was added and, after 25 minutes at room temperature in the dark, using the Victor 1420 Multilabel Counter Perkin Elmer Wallac instrument, the fluorescence reading was carried out (excitation/emission: 485/535 nM—Fluor de Lys Green, 355/460 nM—Tfal, Fluor de Lys).
(§2) Enzymatic activity on recombinant human HDAC6 and HDAC1 was evaluated (Table 2) for each synthesized compound.

recombinant human HDAC1 = recombinant human HDAC1 (Homo sapiens (Human), UniProt Q13547); assay: Enzyme inhibitory activity assay on HDAC1; format: biochemical; details: 120 minutes preincubation at 25° C.
Sequence of recombinant human HDAC1 (Q13547 whole entry): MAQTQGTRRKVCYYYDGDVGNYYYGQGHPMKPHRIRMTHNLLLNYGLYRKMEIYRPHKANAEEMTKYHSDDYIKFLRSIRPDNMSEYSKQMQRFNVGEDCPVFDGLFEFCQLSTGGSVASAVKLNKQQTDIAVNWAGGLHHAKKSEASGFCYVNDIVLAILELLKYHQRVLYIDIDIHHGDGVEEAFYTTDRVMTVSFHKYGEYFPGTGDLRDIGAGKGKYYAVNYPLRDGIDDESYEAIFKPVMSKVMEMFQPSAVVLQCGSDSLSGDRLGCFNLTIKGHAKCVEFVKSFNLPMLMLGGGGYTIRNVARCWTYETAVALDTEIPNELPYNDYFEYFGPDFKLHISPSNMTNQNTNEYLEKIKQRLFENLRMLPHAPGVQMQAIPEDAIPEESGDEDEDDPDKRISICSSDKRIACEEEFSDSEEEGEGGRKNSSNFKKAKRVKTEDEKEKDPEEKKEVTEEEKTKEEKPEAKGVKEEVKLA
Description: as §1, §2

[1] = tested on: murine neuroblastoma N2a cell lines; assay: In vitro α-tubulin acetylation in N2a cell line; format: cell-based; details: N2a cells, 16 hours; dose of the tabulated value not stated (tested at 10 μM, 1 μM and 0.1 μM)
Description: The in vitro α-tubulin acetylation was evaluated on murine neuroblastoma N2a cell lines.
Cells were maintained in Eagle's Minimum Essential Medium (ATCC, cat: 30-2003) supplemented with 10% fetal bovine serum—FBS (Gibco, cat: 10270-106).
Cells were plated in 12-well plates (Costar, cat: 3512) at the density of 6×10^4 cells/cm^2, respectively. The test compounds were prepared as 20× concentrated medium solutions in respect to the final concentrations. The cells were treated the following day. The compounds were tested at 3 doses: 10 μM, 1 μM and 0.1 μM. The final DMSO content was set as 0.5%. The cells were incubated with the compounds at 37° C. for 16 hours.
At the end of the incubation period, the cells were harvested and centrifuged for 5 minutes at 200×g and washed with 0.9% NaCl at 4° C. The resulting pellet was treated for 30 minutes at 4° C. with 100 μl Complete Lysis-M buffer containing protease inhibitors (Complete Lysis-M Roche+Complete Tablets, Mini Easypack, cat: 4719956001) and phosphatase inhibitor cocktails (PhosStop Easypack, Roche, cat: 4906837001) and then centrifuged 10 minutes at 18213×g. The protein concentration in each supernatant was determined using BCA Protein Assay Kit (Pierce, cat: 23227). The samples were diluted in PBS 1× to obtain 2 μg/ml concentration and coated in MaxiSorp 96-well plates (Nunc, cat: 442404). The plates were incubated overnight at room temperature, then washed twice with Wash Buffer (PBS 1×+0.005% tween 20) and saturated for 1 hour at room temperature with 300 μL of 1×PBS containing 10% FBS. After washing twice with Wash Buffer, the plates were incubated for 2 hours at room temperature in the presence of 100 μl/well either anti-acetylated-α-tubulin antibody (Monoclonal Anti-Tubulin, Acetylated antibody produced in mouse, Sigma-Aldrich, cat: T6793) or total anti-α-tubulin antibody (Monoclonal Anti-α-Tubulin produced in mouse, Sigma-Aldrich, cat: T6074) diluted 1:1000 in 1×PBS containing 10% FBS. Following 5 washing cycles with Wash Buffer, the secondary antibody conjugated with the enzyme HRP (Goat anti-Mouse IgG, IgM, IgA (H+L), stock concentration 0.5 mg/ml, Thermo Fisher Scientific, cat: A10668), diluted 1:1000 in 1×PBS+10% FBS was added at the volume of 100 μl/well. After two hours of incubation at room temperature the plates were washed 4 times with Wash Buffer, then 100 μl/well of TMB substrate (TMB substrate kit, Thermo Fisher Scientific, cat: 34021) was added for 15 minutes at room temperature in the dark. The reaction was stopped by adding 50 μl of 2M H2SO4. The plates were read in BioTek Synergy H1 multimode microplate reader at a wavelength of 450 nm.
The measured absorbance was corrected by subtracting the mean of blank values (samples without the primary antibody). The absorbance ratios of acetyl to total tubulin assays were calculated and normalized to the reference compound (positive control) 4 parameter logistic curve, where 100% is the fitted top of the curve and 0% is DMSO control (protein extract obtained from non-treated cells). The results are expressed as fold increase compared to the control (DMSO).

Sequence of recombinant human HDAC6 (Q9UBN7 whole entry): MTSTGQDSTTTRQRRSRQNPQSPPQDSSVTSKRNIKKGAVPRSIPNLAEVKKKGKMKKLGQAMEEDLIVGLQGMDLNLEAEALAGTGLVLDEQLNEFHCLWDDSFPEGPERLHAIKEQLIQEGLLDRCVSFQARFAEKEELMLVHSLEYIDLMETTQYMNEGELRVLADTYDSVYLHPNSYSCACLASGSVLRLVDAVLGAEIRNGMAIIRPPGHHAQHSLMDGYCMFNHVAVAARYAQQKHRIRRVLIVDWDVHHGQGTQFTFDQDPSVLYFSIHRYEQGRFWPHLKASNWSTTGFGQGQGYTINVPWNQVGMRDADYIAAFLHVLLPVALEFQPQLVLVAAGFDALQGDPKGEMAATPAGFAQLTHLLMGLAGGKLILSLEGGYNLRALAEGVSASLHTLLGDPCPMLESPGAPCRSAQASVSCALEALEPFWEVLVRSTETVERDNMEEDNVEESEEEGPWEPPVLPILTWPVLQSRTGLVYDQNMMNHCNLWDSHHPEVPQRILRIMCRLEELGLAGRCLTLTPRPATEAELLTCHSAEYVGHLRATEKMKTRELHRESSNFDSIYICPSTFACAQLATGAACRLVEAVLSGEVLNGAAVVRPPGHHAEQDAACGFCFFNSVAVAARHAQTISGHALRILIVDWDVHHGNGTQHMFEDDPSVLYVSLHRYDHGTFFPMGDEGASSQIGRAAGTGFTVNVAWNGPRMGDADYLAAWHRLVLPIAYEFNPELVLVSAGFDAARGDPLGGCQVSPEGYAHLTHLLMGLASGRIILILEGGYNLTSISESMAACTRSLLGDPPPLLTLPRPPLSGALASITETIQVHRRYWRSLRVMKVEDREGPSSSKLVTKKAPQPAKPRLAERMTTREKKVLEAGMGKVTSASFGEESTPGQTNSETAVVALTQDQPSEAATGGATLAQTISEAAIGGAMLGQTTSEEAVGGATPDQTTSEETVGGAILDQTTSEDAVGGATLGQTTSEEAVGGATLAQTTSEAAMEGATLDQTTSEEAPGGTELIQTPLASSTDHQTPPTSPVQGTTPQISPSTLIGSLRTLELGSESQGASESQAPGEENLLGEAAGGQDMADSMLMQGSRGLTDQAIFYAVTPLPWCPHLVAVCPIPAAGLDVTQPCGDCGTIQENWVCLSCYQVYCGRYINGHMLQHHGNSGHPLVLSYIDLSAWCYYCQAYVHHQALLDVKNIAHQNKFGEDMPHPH

| Compound | IC50 (recombinant human HDAC6) [nM] | IC50 (recombinant human HDAC1) [µM] | Tubulin acetylation Fold increase compared to control [1] [fold] |
| --- | --- | --- | --- |
| FC(F)c1nnc(-c2ccc(Cn3cc(-c4ccc(NC5=NCCN5)cc4)nn3)cc2)o1 [Compound 1-A] | 14 | > 100 | – |
| Nc1nc2ccc(-c3cn(Cc4ccc(-c5nnc(C(F)F)o5)cc4F)nn3)cc2s1 [Compound 2-A] | – | > 100 | – |
| FC(F)c1nnc(-c2ccc(Cn3cc(-c4ccccc4)nn3)nc2)o1 [Compound 13-A] | 32 | > 100 | 6 |
| Fc1ccccc1-c1cn(Cc2ccc(-c3nnc(C(F)F)o3)cn2)nn1 [Compound 14-A] | 22 | > 100 | 7 |
| FC(F)c1nnc(-c2ccc(Cn3cc(-c4ccccn4)nn3)nc2)o1 [Compound 20-A] | 60 | > 100 | 15 |
| Nc1nc2ccc(-c3cn(Cc4ccc(-c5nnc(C(F)F)o5)cc4)nn3)cc2s1 [Compound 32-A] | 26 | > 100 | 20 |
| Nc1nc2ccc(-c3cn(Cc4ccc(-c5nnc(C(F)F)o5)cc4Cl)nn3)cc2s1 [Compound 37-A] | 61 | > 100 | 31 |
| Nc1nc2ccc(-c3cn(Cc4ccc(-c5nnc(C(F)F)o5)cn4)nn3)cc2s1 [Compound 38-A] | 8 | > 100 | 22 |
| Nc1nc2ccc(C3CN(Cc4ccc(C(=O)NNC(=O)C(F)F)s4)N=N3)cc2s1 (stereo not drawn) [Compound 48-A] | 7 | > 100 | 45 |
